Source: ChEMBL document CHEMBL5335793, “PITB: A high affinity transthyretin aggregation inhibitor with optimal pharmacokinetic properties” (Eur J Med Chem, 2023)

How the values were obtained:
Transthyretin [1] = target: T1, Transthyretin (Homo sapiens, UniProt P02766); assay: Binding affinity to wild-type TTR (unknown origin) expressed in Escherichia coli BL21(DE3) assessed as change in enthalpy at 100 uM by ITC analysis
Transthyretin [2] = target: T1, Transthyretin; assay: Binding affinity to wild-type TTR (unknown origin) expressed in Escherichia coli BL21(DE3) assessed as change in entropy at 100 uM by ITC analysis
[3] = tested on: Transthyretin (Homo sapiens), P02766 [V50M]; assay: Binding affinity to TTR V30M mutant (unknown origin) expressed in Escherichia coli BL21(DE3) assessed as change in enthalpy at 100 uM by ITC analysis
[4] = tested on: Transthyretin (Homo sapiens), P02766 [V50M]; assay: Binding affinity to TTR V30M mutant (unknown origin) expressed in Escherichia coli BL21(DE3) assessed as change in entropy at 100 uM by ITC analysis
[5] = tested on: Transthyretin (Homo sapiens), P02766 [V142I]; assay: Binding affinity to TTR V122I mutant (unknown origin) expressed in Escherichia coli BL21(DE3) assessed as change in enthalpy at 100 uM by ITC analysis
[6] = tested on: Transthyretin (Homo sapiens), P02766 [V142I]; assay: Binding affinity to TTR V122I mutant (unknown origin) expressed in Escherichia coli BL21(DE3) assessed as change in entropy at 100 uM by ITC analysis
[7] = tested on: Transthyretin (Homo sapiens), P02766 [V50M]; assay: Stabilization of TTR V30M mutant in human plasma assessed as degree of tetramer stability at 19.1 uM incubated overnight followed by urea addition measured after 5 hrs by isoelectric focusing based densitometry relative to control; assay type: cell-free
[8] = Tmax in CD-1 mouse at 10 mg/kg, po measured for 24 hrs by UPLC-MS/MS analysis; assay type: ADME, organism-based; details: in vivo
[9] = Cmax in CD-1 mouse at 10 mg/kg, po measured for 24 hrs by UPLC-MS/MS analysis; assay type: ADME, organism-based; parameters: dose 10 mg/kg, time 24 hrs, route po; details: in vivo
[10] = AUC (0 to 24 hrs) in CD-1 mouse at 10 mg/kg, po measured for 24 hrs by UPLC-MS/MS analysis; assay type: ADME, organism-based; parameters: time 24 hrs, dose 10 mg/kg, route po; details: in vivo
[11] = Half life in CD-1 mouse at 10 mg/kg, po measured for 24 hrs by UPLC-MS/MS analysis; assay type: ADME, organism-based; details: in vivo
[12] = Elimination rate constant in CD-1 mouse at 10 mg/kg, po measured for 24 hrs by UPLC-MS/MS analysis; assay type: ADME, organism-based; details: in vivo
[13] = Volume of distribution in CD-1 mouse at 10 mg/kg, po measured for 24 hrs by UPLC-MS/MS analysis; assay type: ADME, organism-based; details: in vivo
[14] = Clearance in CD-1 mouse at 10 mg/kg, po measured for 24 hrs by UPLC-MS/MS analysis; assay type: ADME, organism-based; details: in vivo

`Cc1ccc(C(=O)c2cc(O)c(O)c([N+](=O)[O-])c2)cc1` [TOLCAPONE] showed a deltaH (Transthyretin [1]) of -13.6 kcal/mol, a -TdeltaS (Transthyretin [2]) of 3.6 kcal/mol and a deltaH [3] of -13.8 kcal/mol. The -TdeltaS [4] was 5.1 kcal/mol, the deltaH [5] was -12.2 kcal/mol and the -TdeltaS [6] was 2.2 kcal/mol. For the same molecule, the Activity [7] was 4.9%, the Tmax [8] was < 0.25 h and the Cmax [9] was 7620 ng/mL. It also gave an AUC(0-t) at 24 h [10] of 11900 ng·h/mL, a half-life [11] of 1.4 h and a k el at 24 h [12] of 0.000139 s⁻¹. It also gave a Vd [13] of 1.6 L/kg and a CL/F [14] of 13.3 mL/min/kg.
